Source: a melting point compilation (Tetko et al.)
Residues, ends and D or L forms follow the SMILES beside them. *: point of attachment. X5 = CCC(=O)OC1(C(=O)C(O)O*)CCC2C3CC(C)C4=CC(=O)C=CC4(C)C3C(O)CC21C; Pentanoyl = CCCCC(=O)*

SMILES	melting point
CC(C)(C)c1cc(C(C)(C)C)c(OP2OP(Oc3c(C(C)(C)C)cc(C(C)(C)C)cc3C(C)(C)C)OP(Oc3c(C(C)(C)C)cc(C(C)(C)C)cc3C(C)(C)C)O2)c(C(C)(C)C)c1 (stereo not drawn)	226 to 244 °C
[C-]#[N+]C(=CC=C1C=C(c2ccccc2)C=C(c2ccccc2)O1)C(=O)OCC	150 to 152 °C
Cc1cccc(-c2sc(N)nc2-c2ccnc(-c3ccc(CN4CCOCC4)cc3)c2)n1	236 °C
O=C(O)CCCOc1c(Cl)cccc1Cl	66 to 67 °C
Clc1c(Br)c(Cl)c(COCc2c(Cl)c(Br)c(Cl)c(Br)c2Br)c(Br)c1Br	274 to 276 °C
CCC(C)C=O (stereo not drawn)	-60 °C
CCCCCCCCCCCCc1cc2c(cc1CCCCCCCCCCCC)C(=O)c1c(c(O)c3cc(CCCCCCCCCCCC)c(CCCCCCCCCCCC)cc3c1O)C2=O	66 to 76 °C
[C-]#[N+]c1c(C)cccc1C(C)(C)C	60 to 62 °C
CS(C)(=O)=NS(=O)(=O)c1cccc(F)c1C#N	184 °C
O=c1[nH]c(=Cc2ccc(OCc3ccccc3)cn2)c(=O)[nH]c1=Cc1ccc(OCc2ccccc2)cn1	283 to 285 °C
CC(C)CCCC(C)C1CCC2C3CC=C4CC(N(CCCNC(=O)CCNC(=O)CCNC(=O)CCCCCNc5ccc([N+](=O)[O-])cc5[N+](=O)[O-])S(=O)(=O)c5ccccc5[N+](=O)[O-])CCC4(C)C3CCC12C (stereo not drawn)	106 to 108 °C
CC(=O)OC1C(O)C(C)OC(OC2C(OC(=O)C3CCC4C(C3)OC3(CC(OC(=O)C=Cc5ccccc5)C(C)CO3)C43CO3)OC(C)C(O)C2OC(C)=O)C1O (stereo not drawn)	125 to 127 °C
CC(C)(C)c1cc(C(=O)OCCN(CCOC(=O)c2cc(C(C)(C)C)c(O)c(C(C)(C)C)c2)C(=O)c2cc(C(C)(C)C)c(O)c(C(C)(C)C)c2)cc(C(C)(C)C)c1O	200 to 202 °C
O=C(O)CCC(CC=Cc1ccc(Cl)cc1)(C(=O)C=Cc1ccc(Cl)cc1)c1ccccc1 (stereo not drawn)	178 to 180 °C
Cc1ccc(Cl)cc1C(N)=NO	111 to 113 °C
CC1N=C(c2ccccc2)c2cc(Cl)ccc2-n2c1nnc2C(CN(C)C)c1ccccc1 (stereo not drawn)	200 to 203 °C
Cc1ccnc2nc(SCc3ccccc3)nn12	102 to 104 °C

SMILES	melting point
CCCCCCCCCCCCCCCCCCSCCOP(=O)(Cc1cc(C(C)(C)C)c(O)c(C)c1C)OCCSCCCCCCCCCCCCCCCCCC	71 to 73 °C
CCOC(=O)c1c(Nc2ccccc2)n[nH]c1C	160 to 164 °C
COc1ccc(C(=O)c2ccc(OCc3nc(-c4ccccc4)oc3C)cc2)c(O)c1	156 to 157 °C
Ic1cc(I)c(OCCOc2c(I)cc(I)cc2I)c(I)c1	288 to 289 °C
NCCC(N)c1ccccc1C(F)(F)F (stereo not drawn)	213 to 217 °C
COC(=O)COc1ccccc1	85 to 89 °C
NC(=O)c1c(C(=O)O)cnn1-c1ccccc1	234 to 235 °C
O=[N+]([O-])c1cc(Sc2ccc(-c3c(S(=O)c4ccc(Cl)c([N+](=O)[O-])c4-c4ccc(Sc5ccc(Cl)c([N+](=O)[O-])c5)cc4)ccc(Cl)c3[N+](=O)[O-])cc2)ccc1Cl	144 to 146 °C
O=C(Cc1ccccc1)Oc1n[nH]c(=O)c2nc3cc(Cl)ccc3c(O)c12	278 to 282 °C
O=C1COc2cc3c(cc2O1)C1(CO3)CN(Cc2cnccn2)c2ccccc21 (stereo not drawn)	216 to 218 °C
CNC(=O)[C@@H](NC(=O)[C@@H](NC(=O)c1c(I)c(NC(C)=O)c(I)c(C(=O)O)c1I)C(C)C)C(C)C	247 to 248 °C
CCc1c(CC[Si](Cl)(Cl)Cl)c(CC[Si](Cl)(Cl)Cl)c(CC[Si](Cl)(Cl)Cl)c(CC[Si](Cl)(Cl)Cl)c1CC[Si](Cl)(Cl)Cl	195 to 198 °C
CC1c2cc(C(C)(C)C)cc(C(C)(C)C)c2OP(OP2Oc3c(cc(C(C)(C)C)cc3C(C)(C)C)C(C)c3cc(C(C)(C)C)cc(C(C)(C)C)c3O2)Oc2c1cc(C(C)(C)C)cc2C(C)(C)C (stereo not drawn)	281 to 285 °C
O=C(Cl)C(F)(F)F	-146 °C
OCCOc1ccc(-c2ccc(OCCO)cc2)cc1	201 to 202 °C
O=C(c1ccccc1)c1ccc(C(Cl)(Cl)Cl)cc1	109 to 111 °C

Second part, the compound after the results:

melting point	SMILES
112 to 114 °C	CCOC(=O)Cc1ccc(-c2nc(COc3ccc(COc4nn(-c5ccccc5)cc4/C=C/c4nc(N5CCN(C(=O)OC(C)(C)C)CC5)sc4C)cc3OC)c(C)o2)cc1
76.5 to 78 °C	CCOC(=O)C1=C(COCC(O)C(O)COCC2=C(C(=O)OCC)C(c3ccccc3Cl)C(C(=O)OC)=C(C)N2)NC(C)=C(C(=O)OC)C1c1ccccc1Cl (stereo not drawn)
191 to 193 °C	CS(=O)(=O)c1ccc(-c2cc3c(cc2C(=O)c2cc4c(cc2-c2ccc(S(C)(=O)=O)cc2)OC(c2cc(F)cc(F)c2)CO4)OCC(c2cc(F)cc(F)c2)O3)cc1 (stereo not drawn)
230 to 235 °C	CC(=O)C1CCC2C3CCC4CC(O)(C#Cc5cccnc5)CCC4(C)C3CCC12C (stereo not drawn)
85 to 89 °C	CC(C)C(NS(=O)(=O)N(C)Cc1ccccn1)C(=O)NC(Cc1ccccc1)C(O)C(O)C(Cc1ccccc1)NC(=O)C(NS(=O)(=O)N(C)Cc1ccccn1)C(C)C (stereo not drawn)
176 to 178 °C	COc1cc(OC)c(/C=C/C(c2ccc(OC)c(NC(=O)CN3CCN(C)CC3)c2)S(=O)(=O)C(/C=C/c2c(OC)cc(OC)cc2OC)c2ccc(OC)c(NC(=O)CN3CCN(C)CC3)c2)c(OC)c1 (stereo not drawn)
54.5 °C	C=CC(=O)OCCCCCCOc1ccc(C(=O)Oc2ccc(OC(=O)c3ccc(OCCCCCCOC(=O)C=C)cc3)c(C(=O)OCCCCCCCCOc3ccc(C#N)cc3)c2)cc1
131 to 132 °C	CCCCCCCCCCCCCC=CC(OC(=O)c1ccccc1)C(COC1OC(CO)C(O)C(OCCCCC(C(=O)OC(C)(C)C)C(=O)OC(C)(C)C)C1O)NC(=O)CCCCCCCCCCCCCCC (stereo not drawn)
98 to 110 °C	CC(C)(C)OC(=O)CC[C@H](NC(=O)CNC(=O)[C@H](CSC(c1ccccc1)(c1ccccc1)c1ccccc1)NC(c1ccccc1)(c1ccccc1)c1ccccc1)C(=O)OC(C)(C)C
118 to 120 °C	CC(C)[C@H](NC(=O)N(C)Cc1cscn1)C(=O)N[C@@H](Cc1ccccc1)[C@H](O)[C@@H](O)[C@H](Cc1ccccc1)NC(=O)[C@@H](NC(=O)N(C)Cc1csc(N)n1)C(C)C
92 to 94 °C	CN(C)C(=O)c1cc2c(nc(C3CC3)n2C)c(O)c1CCC(O)c1ccccc1 (stereo not drawn)
101 to 104 °C	CC(=O)OCC(CN(CC(COC(C)=O)OC(C)=O)C(=O)c1c(I)c(NC(=O)C2CCCO2)c(I)c(C(N)=O)c1I)OC(C)=O (stereo not drawn)
170 to 171 °C	Cc1ccc(S(=O)(=O)N2CCN(C)CCN(S(=O)(=O)c3ccc(C)cc3)CCN(S(=O)(=O)c3ccc(C)cc3)CCN(S(=O)(=O)c3ccc(C)cc3)CC2)cc1
150 to 155 °C	CCCCCCCCCCCCCC(=O)NC1C(OCC(=O)O)OC(COC2OC(CO)C(OP(=O)(O)O)C(OC(=O)CNC(=O)CCCCCCCCCCC)C2NC(=O)CCCCCCCCCCCCC)C(O)C1OC(=O)CCCCCCCCCCCCC (stereo not drawn)
173 to 175 °C	CS(=O)(=O)C1CCN(Cc2ccc(COc3cccc4c3CN(C3CCC(=O)NC3=O)C4=O)cc2)CC1 (stereo not drawn)
80 to 83 °C	CCCCCCCCCCCCCCCCCCN(CCCCCCCCCCCCCCCCCC)C(=O)c1cc(NS(=O)(=O)c2ccc(Cl)nc2)c2ccccc2c1O
142 °C	CCCCC(=O)NC(C)C(=O)NC(C)C(=O)N1CCCC1C(=O)NC(C(=O)OC(O)C(=O)C1(OC(=O)CC)CCC2C3CC(C)C4=CC(=O)C=CC4(C)C3C(O)CC21C)C(C)C (stereo not drawn) (Pentanoyl-AAPV-X5; configuration not given here)
160 to 165 °C	C=CC1=C(C)c2cc3[nH]c(cc4nc(cc5[nH]c(cc1n2)c(C)c5CCC(=O)OCCCCCCN(C)C)C(CCC(=O)OCCCCCCN(C)C)=C4C)c(C)c3C=C
142 to 145 °C	Cc1ccc(S(=O)(=O)N2CCN(S(=O)(=O)c3ccc(C)cc3)CCN(S(=O)(=O)c3ccc(C)cc3)CC(CC(C)C)N(S(=O)(=O)c3ccc(C)cc3)CCN(S(=O)(=O)c3ccc(C)cc3)CC2)cc1 (stereo not drawn)
85 to 86 °C	CCCCCc1ccc(OCCCCCCOc2ccc(-c3ccc4c5c(c(C(=O)OCC)cc4c3)C=CC(c3ccccc3)(c3ccc(N4CCCCC4)cc3)O5)cc2)cc1 (stereo not drawn)
91 to 93 °C	CCCCCCCCCCCCCCCCCCN(CCCCCCCCCCCCCCCCCC)C(=O)c1c(NS(=O)(=O)c2cccc(C(C)=O)c2)cc2ccccc2c1OC(=O)c1ccccc1
113 to 114 °C	CC(C)CCCC(C)C1CCC2C3CC=C4CC(N(CCCNC(=O)CCNC(=O)CCNC(=O)CCCCCNc5ccc([N+](=O)[O-])c6nonc56)S(=O)(=O)c5ccccc5[N+](=O)[O-])CCC4(C)C3CCC12C (stereo not drawn)
256 to 258 °C	CCCCCCCS(=O)(=O)c1cc2c3cc(S(=O)(=O)CCCCCCC)c(S(=O)(=O)CCCCCCC)cc3c3cc(S(=O)(=O)CCCCCCC)c(S(=O)(=O)CCCCCCC)cc3c2cc1S(=O)(=O)CCCCCCC
31 to 32.1 °C	CCCCCCCCCCCC(=O)OC(CCCCCCCCCCC)CC(=O)NC(CCOP(=O)(Oc1ccccc1)Oc1ccccc1)C(=O)OCc1ccccc1 (stereo not drawn)
52 to 54 °C	CCCCCCCCCCCCCCCC(=O)OCC(CSCC(NC(=O)OCc1cccc2c1Cc1ccccc1-2)C(=O)OC(C)(C)C)OC(=O)CCCCCCCCCCCCCCC (mixture of isomers)
191 °C	CON=C(C(=O)NC1C(=O)N2C1CSC(c1ccc(Cl)cc1)C2(O)C(=O)OC(C)(C)C)c1csc(NC(c2ccccc2)(c2ccccc2)c2ccccc2)n1 (stereo not drawn)
125 to 145 °C	COC1C(=O)C2(C)C(OC)CC3OCC3(OC(C)=O)C2C(OC(=O)c2ccccc2)C2(O)CC(OC(=O)C(O)C(NC(=O)OC(C)(C)C)c3ccccc3)C(C)=C1C2(C)C (stereo not drawn)
165 to 172 °C	Cc1cc(Oc2ccc3nc(COc4ccc(CC(Nc5ccccc5C(=O)c5ccccc5)C(=O)O)cc4)n(C)c3c2)cc(C)c1NC(=O)Nc1ccc(C(F)(F)F)cc1 (stereo not drawn)
112 °C	Cc1ccc2cccc(OCc3c(Cl)ccc(S(=O)(=O)N4CCC[C@H]4C(=O)NC4CCN(C(=O)CCN(C=NC(=O)OC(C)(C)C)NC(=O)OC(C)(C)C)CC4)c3Cl)c2n1
115 to 117 °C	Cc1cc(C)c2cccc(OCc3c(Cl)ccc(S(=O)(=O)N4CCC[C@H]4C(=O)NC4CCN(C(=O)CCN(C=NC(=O)OC(C)(C)C)NC(=O)OC(C)(C)C)CC4)c3Cl)c2n1
